{"source": "ChEMBL document CHEMBL3046663", "about": "“Assessing the effects of three potential chemical repellents to prevent bird damage to corn seeds and seedlings” (Pest Manag Sci, 2013)", "key": {"Columba livia [1]": {"tested_on": "Columba livia", "assay": "Bird repellent activity against Columba livia f. domestica fed with compound treated maize seeds assessed as feeding deterrence activity at 1 ml/kg by aviary food choice trials", "assay_type": "functional, organism-based"}, "Zea mays [2]": {"tested_on": "Zea mays", "assay": "Phytotoxicity against Zea mays (maize) seeds assessed as germination rate at 10 degC after 7 days by standard vigour method", "assay_type": "organism-based", "details": "in vivo, 168 h"}, "Zea mays [3]": {"tested_on": "Zea mays", "assay": "Phytotoxicity against Zea mays (maize) seeds assessed as germination rate at 25 degC after 5-6 days by standard vigour method", "assay_type": "organism-based", "details": "in vivo"}, "Columba livia [4]": {"tested_on": "Columba livia", "assay": "Bird repellent activity against Columba livia f. domestica fed with compound treated maize seeds assessed as feeding deterrence activity at 0.085 ml/kg measured for 4 days by aviary food choice trials", "assay_type": "functional, organism-based"}, "Columba livia [5]": {"tested_on": "Columba livia", "assay": "Bird repellent activity against Columba livia f. domestica assessed as decrease in damage of maize seedlings grown from compound-treated seeds at 0.085 ml/kg measured after 3 days exposure during aviary trials", "assay_type": "functional, organism-based"}, "Columba livia [6]": {"tested_on": "Columba livia", "assay": "Bird repellent activity against Columba livia f. domestica assessed as decrease in damage of maize seedlings grown from compound-treated seeds at 0.085 ml/kg measured in the field at 2 to 16 days after germination during field trials", "assay_type": "functional, organism-based"}, "Columba livia [7]": {"tested_on": "Columba livia", "assay": "Bird repellent activity against Columba livia f. domestica fed with compound treated maize seeds assessed as feeding deterrence activity at 1.4 ml/kg measured for 4 days by aviary food choice trials", "assay_type": "functional, organism-based"}, "Columba livia [8]": {"tested_on": "Columba livia", "assay": "Bird repellent activity against Columba livia f. domestica assessed as decrease in damage of maize seedlings grown from compound-treated seeds at 1.4 ml/kg measured in the field at 2 to 16 days after germination during field trials", "assay_type": "functional, organism-based"}, "Columba livia [9]": {"tested_on": "Columba livia", "assay": "Bird repellent activity against Columba livia f. domestica assessed as decrease in damage of maize seedlings grown from compound-treated seeds at 1.4 ml/kg measured after 3 days exposure during aviary trials", "assay_type": "functional, organism-based"}}, "note": "Activity calls are given as the source filed them. The calls are words filed in the database; no cut-off is given here."}
{"smiles": "O=C1c2ccccc2C(=O)c2ccccc21", "note": "[ANTHRAQUINONE]", "values": [{"measurement": "Activity", "setting": "Columba livia [1]", "value": "inactive"}, {"measurement": "Activity", "setting": "Zea mays [2]", "value": "Non-toxic"}, {"measurement": "Activity", "setting": "Zea mays [3]", "value": "Non-toxic"}]}
{"smiles": "COC(=O)c1ccccc1N", "note": "[METHYL ANTHRANILATE]", "values": [{"measurement": "Activity", "setting": "Zea mays [2]", "value": "Non-toxic"}, {"measurement": "Activity", "setting": "Columba livia [4]", "value": "Active"}, {"measurement": "inhibition", "setting": "Columba livia [5]", "value": "inactive"}, {"measurement": "inhibition", "setting": "Columba livia [6]", "value": "inactive"}, {"measurement": "Activity", "setting": "Zea mays [3]", "value": "Non-toxic"}]}
{"smiles": "CC(C)=C1CC[C@@H](C)CC1=O", "note": "[PULEGONE]", "values": [{"measurement": "Activity", "setting": "Zea mays [2]", "value": "Non-toxic"}, {"measurement": "Activity", "setting": "Columba livia [7]", "value": "Active"}, {"measurement": "inhibition", "setting": "Columba livia [8]", "value": "inactive"}, {"measurement": "inhibition", "setting": "Columba livia [9]", "value": "inactive"}, {"measurement": "Activity", "setting": "Zea mays [3]", "value": "Non-toxic"}]}
